Tested on: Recombinant amyloidogenic full length light chain protein WIL-FL T46L
Experiment: Differential Scanning Fluorimetry Assay (thermal shift assay); further: test concentration or dose not given here
Type: binding
Details: Thermal Shift Protein Stability Kit (Biotium), 96-well plates; protein and compounds incubated at RT for 30 min before adding the dye
Experimental: Differential Scanning Fluorimetry Assay
The stabilization effects the compounds have on the immunoglobulin light chain protein were quantitively measured using a thermal shift assay. Recombinant amyloidogenic full length light chain protein WIL-FL T46L was produced in E. coli, purified, and used in the assay. The Thermal Shift Protein Stability Kit from Biotium was used and the assay was done in 96-well plates following the manufacturer's instructions. The protein and compounds were incubated at RT for 30 min before adding the dye and subjected to the thermal shift assay. The thermal stability (Tm) of each sample was then determined using standard curve fitting methods and compared to vehicle. Data are expressed as temperature shift: [Tm]compound−[Tm]vehicle.
Results • 0-0.5° C.=* • >0.5-1° C.=** • >1-1.5° C.=*** • >1.5-2.5° C.=**** • >2.5° C.=*****

| Compound | DSF temperature shift: [Tm]compound−[Tm]vehicle |
| --- | --- |
| Cc1cc(OCC2(c3ccccc3)CC2)cn2nc(C(O)CN3CC4(CCN(c5cccnc5C(F)(F)F)CC4)NC3=O)nc12 (stereo not shown) [Compound 35] | **** (>1.5-2.5° C.=****) |
| Cc1cc(F)ncc1N1CCC2(CC1)CN(CC(O)c1nc3c(C)cc(OCC4(c5ccccc5)CC4)cn3n1)C(=O)N2 (stereo not shown) [Compound 36] | **** (>1.5-2.5° C.=****) |
| Cc1cc(OCC2(c3ccccc3)CC2)cn2nc(C(O)CN3CC4(CCN(c5ccnc(Cl)c5)CC4)NC3=O)nc12 (stereo not shown) [Compound 37] | **** (>1.5-2.5° C.=****) |
| Cc1cc(OCC2(c3ccccc3)CC2)cn2nc(C(O)CN3CC4(CCN(c5cnc(C#N)c(F)c5)CC4)NC3=O)nc12 (stereo not shown) [Compound 38] | **** (>1.5-2.5° C.=****) |
| Cc1cc(OCC2(c3ccccc3)CC2)cn2nc(C(O)CN3CC4(CCN(c5cc(F)nc(F)c5)CC4)NC3=O)nc12 (stereo not shown) [Compound 39] | ** (>0.5-1° C.=**) |
| Cc1cc(OCC2(c3ccccc3)CC2)cn2nc(C(O)CN3CC4(CCN(c5ccc(Cl)nc5)CC4)NC3=O)nc12 (stereo not shown) [Compound 41] | **** (>1.5-2.5° C.=****) |
| Cc1cc(OCC2(c3ccccc3)CC2)cn2nc(C(O)CN3CC4(CCN(c5ccc(F)nc5)CC4)NC3=O)nc12 (stereo not shown) [Compound 42] | **** (>1.5-2.5° C.=****) |
| Cc1cc(OCC2(c3ccccc3)CC2)cn2nc(C(O)CN3CC4(CCN(c5ccc(F)nn5)CC4)NC3=O)nc12 (stereo not shown) [Compound 43] | **** (>1.5-2.5° C.=****) |
| Cc1cc(OCC2(c3ccccc3)CC2)cn2nc(C(O)CN3CC4(CCN(c5ccnc(F)n5)CC4)NC3=O)nc12 (stereo not shown) [Compound 44] | ***** (>2.5° C.=*****) |
| Cc1cc(OCC2(c3ccccc3)CC2)cn2nc(C(O)CN3CC4(CCN(c5ccnc(O)c5)CC4)NC3=O)nc12 (stereo not shown) [Compound 45] | ***** (>2.5° C.=*****) |
| Cc1cc(OCC2(c3ccccc3)CC2)cn2nc(C(O)CN3CC4(CCN(c5ccncc5)CC4)NC3=O)nc12 (stereo not shown) [Compound 46] | **** (>1.5-2.5° C.=****) |
| Cc1cc(OCC2(c3ccccc3)CC2)cn2nc(C(O)CN3CC4(CCN(c5ccnnc5)CC4)NC3=O)nc12 (stereo not shown) [Compound 47] | **** (>1.5-2.5° C.=****) |
| Cc1cc(OCC2(c3ccccc3)CC2)cn2nc(C(O)CN3CC4(CCN(c5ccc(C(=O)O)nc5)CC4)NC3=O)nc12 (stereo not shown) [Compound 48] | **** (>1.5-2.5° C.=****) |
| Cc1cc(OCC2(c3ccccc3)CC2)cn2nc(C(O)CN3CC4(CCN(c5cncnc5)CC4)NC3=O)nc12 (stereo not shown) [Compound 49] | **** (>1.5-2.5° C.=****) |
| Cc1nccc(N2CCC3(CC2)CN(CC(O)c2nc4c(C)cc(OCC5(c6ccccc6)CC5)cn4n2)C(=O)N3)n1 (stereo not shown) [Compound 50] | **** (>1.5-2.5° C.=****) |
| Cc1nsc(N2CCC3(CC2)CN(CC(O)c2nc4c(C)cc(OCC5(c6ccccc6)CC5)cn4n2)C(=O)N3)n1 (stereo not shown) [Compound 51] | ***** (>2.5° C.=*****) |
| Cc1cc(OCC2(c3ccccc3)CC2)cn2nc(C(O)CN3CC4(CCN(c5ccc(N)c(F)n5)CC4)NC3=O)nc12 (stereo not shown) [Compound 52] | ***** (>2.5° C.=*****) |
| Cc1cc(OCC2(c3ccccc3)CC2)cn2nc(C(O)CN3CC4(CCN(c5nc(F)ccc5N)CC4)NC3=O)nc12 (stereo not shown) [Compound 53] | **** (>1.5-2.5° C.=****) |
| Cc1cc(OCC2(c3ccccc3)CC2)cn2nc(C(O)CN3CC4(CCN(c5ncc(C(=O)O)n6ccnc56)CC4)NC3=O)nc12 (stereo not shown) [Compound 54] | **** (>1.5-2.5° C.=****) |
| Cc1cc(OCC2(c3ccccc3)CC2)cn2nc(C(O)CN3CC4(CCN(c5cnc(Cl)cn5)CC4)NC3=O)nc12 (stereo not shown) [Compound 55] | **** (>1.5-2.5° C.=****) |
| Cc1cc(OCC2(c3ccccc3)CC2)cn2nc(C(O)CN3CC4(CCN(c5ncccn5)CC4)NC3=O)nc12 (stereo not shown) [Compound 56] | ***** (>2.5° C.=*****) |
| Cc1cc(OCC2(c3ccccc3)CC2)cn2nc(C(O)CN3CC4(CCN(c5nccn6cncc56)CC4)NC3=O)nc12 (stereo not shown) [Compound 57] | ***** (>2.5° C.=*****) |
| Cc1cc(OCC2(c3ccccc3)CC2)cn2nc(C(O)CN3CC4(CCN(c5cnccn5)CC4)NC3=O)nc12 (stereo not shown) [Compound 58] | ***** (>2.5° C.=*****) |
| Cc1cc(OCC2(c3ccccc3)CC2)cn2nc(C(O)CN3CC4(CCN(c5cc(F)ncn5)CC4)NC3=O)nc12 (stereo not shown) [Compound 59] | **** (>1.5-2.5° C.=****) |
| Cc1cc(OCC2(c3ccccc3)CC2)cn2nc(C(O)CN3CC4(CCN(c5ccn(C)n5)CC4)NC3=O)nc12 (stereo not shown) [Compound 61] | **** (>1.5-2.5° C.=****) |

| Compound | DSF temperature shift: [Tm]compound−[Tm]vehicle |
| --- | --- |
| Cc1cc(OCC2(c3ccccc3)CC2)cn2nc(C(O)CN3CC4(CCN(c5nnn(C)n5)CC4)NC3=O)nc12 (stereo not shown) [Compound 62] | **** (>1.5-2.5° C.=****) |
| Cc1cc(OC[C@H](C)c2ccccc2)cn2nc(CCN3CC4(CCN(c5nccn6cncc56)CC4)NC3=O)nc12 [Compound 63] | **** (>1.5-2.5° C.=****) |
| Cc1cc(OC[C@H](C)c2ccccc2)cn2nc(C(=O)CN3CC4(CCN(c5nccn6cnnc56)CC4)CC3=O)nc12 [Compound 64] | **** (>1.5-2.5° C.=****) |
| Cc1cc(OC[C@H](C)c2ccccc2)cn2nc(C(C)(O)CN3CC4(CCN(C(=O)c5nncn5C)CC4)NC3=O)nc12 (stereo partly shown) [Compound 65] | **** (>1.5-2.5° C.=****) |
| Cc1cc(OC[C@H](C)c2ccccc2)cn2nc(C(C)(O)CN3CC4(CCN(C(=O)Cc5ncnn5C)CC4)NC3=O)nc12 (stereo partly shown) [Compound 66] | *** (>1-1.5° C.=***) |
| Cc1cc(OC[C@H](C)c2ccccc2)cn2nc(C(C)(O)CN3CC4(CCN(c5ccnc(O)c5)CC4)NC3=O)nc12 (stereo partly shown) [Compound 67] | **** (>1.5-2.5° C.=****) |
| Cc1cc(OC[C@H](C)c2ccccc2)cn2nc(C(C)CN3CC4(CN(c5ccnc(O)c5)C4)NC3=O)nc12 (stereo partly drawn) [Compound 68, 2-(2-hydroxy-4-pyridyl)-7-[2-[8-methyl-6-[(2R)-2-phenylpropoxy]-[1,2,4]triazolo[1,5-a]pyridin-2-yl]propyl]-2,5,7-triazaspiro[3.4]octan-6-one] | **** (>1.5-2.5° C.=****) |
| Cc1cc(OC[C@H](C)c2ccccc2)cn2nc(C(O)CN3CC4(CCN(C(=O)c5ncn(C)n5)CC4)NC3=O)nc12 (stereo partly shown) [Compound 69] | **** (>1.5-2.5° C.=****) |
| Cc1cc(OC[C@H](C)c2ccccc2)cn2nc(C(O)CN3CC4(CCN(C(=O)Cc5ncnn5C)CC4)NC3=O)nc12 (stereo partly shown) [Compound 70] | **** (>1.5-2.5° C.=****) |
| Cc1cc(OC[C@H](C)c2ccccc2)cn2nc(C(O)CN3CC4(CCN(C(=O)Cn5nnnc5C)CC4)NC3=O)nc12 (stereo partly shown) [Compound 71] | **** (>1.5-2.5° C.=****) |
| Cc1cc(OC[C@H](C)c2ccccc2)cn2nc(C(O)CN3CC4(CCN(c5cccc(O)n5)CC4)NC3=O)nc12 (stereo partly shown) [Compound 72] | **** (>1.5-2.5° C.=****) |
| Cc1cc(OC[C@H](C)c2ccccc2)cn2nc(C(O)CN3CC4(CCN(c5ccnc(O)c5)C4)NC3=O)nc12 (stereo partly shown) [Compound 73] | *** (>1-1.5° C.=***) |
| Cc1cc(OC[C@H](C)c2ccccc2)cn2nc(C(O)CN3CC4(CCN(c5ccnc(O)c5)CC4)NC3=O)nc12 (stereo partly shown) [Compound 74] | **** (>1.5-2.5° C.=****) |
| Cc1cc(OC[C@H](C)c2ccccc2)cn2nc(C(O)CN3CC4(CCN(c5cncnc5)CC4)NC3=O)nc12 (stereo partly shown) [Compound 75] | **** (>1.5-2.5° C.=****) |
| Cc1cc(OC[C@H](C)c2ccccc2)cn2nc(C(O)CN3CC4(CCN(c5nccn6cnnc56)CC4)NC3=O)nc12 (stereo partly shown) [Compound 76] | ***** (>2.5° C.=*****) |
| Cc1cc(OC[C@H](C)c2ccccc2)cn2nc(C(O)CN3CC4(CCN(c5nccn6cnnc56)CC4)OC3=O)nc12 (stereo partly shown) [Compound 77] | **** (>1.5-2.5° C.=****) |
| Cc1cc(OC[C@H](C)c2ccccc2)cn2nc(C(O)CN3CC4(CCN(c5cnccn5)CC4)NC3=O)nc12 (stereo partly shown) [Compound 78] | ***** (>2.5° C.=*****) |
| Cc1cc(OC[C@H](C)c2ccccc2)cn2nc(C(O)CN3CC4(CCN(C5CCNC(=O)C5)CC4)NC3=O)nc12 (stereo partly shown) [Compound 79] | **** (>1.5-2.5° C.=****) |
| Cc1cc(OC[C@H](C)c2ccccc2)cn2nc(C(O)CN3CC4(CN(c5ccnc(C(=O)O)c5)C4)NC3=O)nc12 (stereo partly shown) [Compound 80] | ***** (>2.5° C.=*****) |
| Cc1cc(OC[C@H](C)c2ccccc2)cn2nc(C(O)CN3CC4(CN(c5ccnc(O)c5)C4)OC3=O)nc12 (stereo partly shown) [Compound 81] | ***** (>2.5° C.=*****) |
| Cc1cc(OC[C@H](C)c2ccccc2)cn2nc(C(O)CN3CC4(CN(c5ccnc(S(C)(=N)=O)c5)C4)NC3=O)nc12 (stereo partly shown) [Compound 82] | **** (>1.5-2.5° C.=****) |
| Cc1cc(OC[C@H](C)c2ccccc2)cn2nc(C(O)CN3CC4(CN(c5cccc(O)n5)C4)NC3=O)nc12 (stereo partly shown) [Compound 83] | ***** (>2.5° C.=*****) |
| Cc1cc(OC[C@H](C)c2ccccc2)cn2nc(C(O)CN3CC4(CN(c5ccnc(O)c5)C4)NC3=O)nc12 (stereo partly shown) [Compound 84] | ***** (>2.5° C.=*****) |
| Cc1cc(OC[C@H](C)c2ccccc2)cn2nc(C(O)CN3CC4(CN(c5ccnc(O)n5)C4)NC3=O)nc12 (stereo partly shown) [Compound 85] | ***** (>2.5° C.=*****) |

— patent US20240174695A1, “Spirocycle Containing Bicyclic Heteroaryl Compounds” (Protego Biopharma, Inc., priority 2022, published 2024)
